Measurements published in ChEMBL document CHEMBL1151939, “Potential scorpionate antibiotics: targeted hydrolysis of lipid II containing model membranes by vancomycin-TACzyme conjugates and modulation of their antibacterial activity by Zn-ions” (2009).
≈ marks a conversion by molar mass, not a printed value. Calls of active or inactive are those of the source. The rule behind the calls is not given here.

How the values were obtained:
Type in all cases: functional
Enterococcus [1] = assay: Antimicrobial activity against vancomycin-susceptible Enterococcus 15A797 by broth microdilution method in presence of ZnSo4 in medium
Enterococcus [2] = assay: Antimicrobial activity against vancomycin-resistant Enterococcus 15A799 by broth microdilution method in presence of ZnSo4 in medium
Enterococcus [3] = assay: Antimicrobial activity against vancomycin-resistant Enterococcus 15A799 by broth microdilution method
Enterococcus [4] = assay: Antimicrobial activity against vancomycin-susceptible Enterococcus 15A797 by broth microdilution method

SMILES | MIC (Enterococcus [1]) | MIC (Enterococcus [2]) | MIC (Enterococcus [3]) | MIC (Enterococcus [4]) [µM]
COC(=O)c1cc(OCCNC(=O)c2cc(OCc3cn(CCCNC(=O)CC[C@H](NC(=O)c4cc5cc(c4)CN(C(=O)[C@H](Cc4c[nH]cn4)NC(C)=O)CCCN(C(=O)[C@H](Cc4c[nH]cn4)NC(C)=O)CCCN(C(=O)[C@H](Cc4c[nH]cn4)NC(C)=O)C5)C(N)=O)nn3)cc(OCc3cn(CCCNC(=O)CC[C@H](NC(=O)c4cc5cc(c4)CN(C(=O)[C@H](Cc4c[nH]cn4)NC(C)=O)CCCN(C(=O)[C@H](Cc4c[nH]cn4)NC(C)=O)CCCN(C(=O)[C@H](Cc4c[nH]cn4)NC(C)=O)C5)C(N)=O)nn3)c2)cc(OCCNC(=O)c2cc(OCc3cn(CCCNC(=O)CC[C@@H](NC(=O)c4cc5cc(c4)CN(C(=O)[C@H](Cc4c[nH]cn4)NC(C)=O)CCCN(C(=O)[C@@H](Cc4c[nH]cn4)NC(C)=O)CCCN(C(=O)[C@H](Cc4c[nH]cn4)NC(C)=O)C5)C(N)=O)nn3)cc(OCc3cn(CCCNC(=O)CC[C@@H](NC(=O)c4cc5cc(c4)CN(C(=O)[C@H](Cc4c[nH]cn4)NC(C)=O)CCCN(C(=O)[C@@H](Cc4c[nH]cn4)NC(C)=O)CCCN(C(=O)[C@H](Cc4c[nH]cn4)NC(C)=O)C5)C(N)=O)nn3)c2)c1 | inactive | inactive |  | 
CC(=O)N[C@@H](Cc1c[nH]cn1)C(=O)N1CCCN(C(=O)[C@H](Cc2c[nH]cn2)NC(C)=O)Cc2cc(cc(C(=O)N[C@@H](CCC(=O)NCCCN=[N+]=[N-])C(N)=O)c2)CN(C(=O)[C@@H](Cc2c[nH]cn2)NC(C)=O)CCC1 | inactive | inactive |  | 
C#CCOc1cc(OCC#C)cc(C(=O)NCCOc2cc(OCCNC(=O)c3cc(OCC#C)cc(OCC#C)c3)cc(C(=O)NCCCOCCOCCOCCCNC(=O)[C@H]3NC(=O)[C@H]4NC(=O)[C@H](NC(=O)[C@@H]5NC(=O)[C@H](CC(N)=O)NC(=O)[C@H](NC(=O)[C@@H](CC(C)C)NC)[C@H](O)c6ccc(c(Cl)c6)Oc6cc5cc(c6O[C@@H]5O[C@H](CO)[C@@H](O)[C@H](O)[C@H]5O[C@H]5C[C@](C)(N)[C@H](O)[C@H](C)O5)Oc5ccc(cc5Cl)[C@H]4O)c4ccc(O)c(c4)-c4c(O)cc(O)cc43)c2)c1 |  |  | 3.2 µM (≈ 7.35 µg/mL) | 1.6 (≈ 3.68 µg/mL)
C#CCCC(=O)NCCCOCCOCCOCCCNC(=O)[C@H]1NC(=O)[C@H]2NC(=O)[C@H](NC(=O)[C@@H]3NC(=O)[C@H](CC(N)=O)NC(=O)[C@H](NC(=O)[C@@H](CC(C)C)NC)[C@H](O)c4ccc(c(Cl)c4)Oc4cc3cc(c4O[C@@H]3O[C@H](CO)[C@@H](O)[C@H](O)[C@H]3O[C@H]3C[C@](C)(N)[C@H](O)[C@H](C)O3)Oc3ccc(cc3Cl)[C@H]2O)c2ccc(O)c(c2)-c2c(O)cc(O)cc21 |  |  | inactive | 1 (≈ 1.73 µg/mL)
CN[C@H](CC(C)C)C(=O)N[C@H]1C(=O)N[C@@H](CC(N)=O)C(=O)N[C@H]2C(=O)N[C@H]3C(=O)N[C@H](C(=O)N[C@H](C(=O)NCCCOCCOCCOCCCNC(=O)CCc4cn(CCCNC(=O)CC[C@H](NC(=O)c5cc6cc(c5)CN(C(=O)[C@@H](Cc5c[nH]cn5)NC(C)=O)CCCN(C(=O)[C@H](Cc5c[nH]cn5)NC(C)=O)CCCN(C(=O)[C@H](Cc5c[nH]cn5)NC(C)=O)C6)C(N)=O)nn4)c4cc(O)cc(O)c4-c4cc3ccc4O)[C@H](O)c3ccc(c(Cl)c3)Oc3cc2cc(c3O[C@@H]2O[C@H](CO)[C@@H](O)[C@H](O)[C@H]2O[C@H]2C[C@](C)(N)[C@H](O)[C@H](C)O2)Oc2ccc(cc2Cl)[C@H]1O | 2.9 µM | 92.8 µM | inactive | 5.8 (≈ 16 µg/mL)
CN[C@H](CC(C)C)C(=O)N[C@H]1C(=O)N[C@@H](CC(N)=O)C(=O)N[C@H]2C(=O)N[C@H]3C(=O)N[C@H](C(=O)N[C@H](C(=O)NCCCOCCOCCOCCNC(=O)c4cc(OCCNC(=O)c5cc(OCc6cn(CCCNC(=O)CC[C@H](NC(=O)c7cc8cc(c7)CN(C(=O)[C@@H](Cc7c[nH]cn7)NC(C)=O)CCCN(C(=O)[C@H](Cc7c[nH]cn7)NC(C)=O)CCCN(C(=O)[C@H](Cc7c[nH]cn7)NC(C)=O)C8)C(N)=O)nn6)cc(OCc6cn(CCCNC(=O)CC[C@H](NC(=O)c7cc8cc(c7)CN(C(=O)[C@@H](Cc7c[nH]cn7)NC(C)=O)CCCN(C(=O)[C@H](Cc7c[nH]cn7)NC(C)=O)CCCN(C(=O)[C@H](Cc7c[nH]cn7)NC(C)=O)C8)C(N)=O)nn6)c5)cc(OCCNC(=O)c5cc(OCc6cn(CCCNC(=O)CC[C@H](NC(=O)c7cc8cc(c7)CN(C(=O)[C@@H](Cc7c[nH]cn7)NC(C)=O)CCCN(C(=O)[C@H](Cc7c[nH]cn7)NC(C)=O)CCCN(C(=O)[C@H](Cc7c[nH]cn7)NC(C)=O)C8)C(N)=O)nn6)cc(OCc6cn(CCCNC(=O)CC[C@H](NC(=O)c7cc8cc(c7)CN(C(=O)[C@@H](Cc7c[nH]cn7)NC(C)=O)CCCN(C(=O)[C@H](Cc7c[nH]cn7)NC(C)=O)CCCN(C(=O)[C@H](Cc7c[nH]cn7)NC(C)=O)C8)C(N)=O)nn6)c5)c4)c4cc(O)cc(O)c4-c4cc3ccc4O)[C@H](O)c3ccc(c(Cl)c3)Oc3cc2cc(c3O[C@@H]2O[C@H](CO)[C@@H](O)[C@H](O)[C@H]2O[C@H]2C[C@](C)(N)[C@H](O)[C@H](C)O2)Oc2ccc(cc2Cl)[C@H]1O | 5 µM | inactive | inactive | 40 (≈ 255 µg/mL)
CN[C@H](CC(C)C)C(=O)N[C@H]1C(=O)N[C@@H](CC(N)=O)C(=O)N[C@H]2C(=O)N[C@H]3C(=O)N[C@H](C(=O)N[C@H](C(=O)O)c4cc(O)cc(O)c4-c4cc3ccc4O)[C@H](O)c3ccc(c(Cl)c3)Oc3cc2cc(c3O[C@@H]2O[C@H](CO)[C@@H](O)[C@H](O)[C@H]2O[C@H]2C[C@](C)(N)[C@H](O)[C@H](C)O2)Oc2ccc(cc2Cl)[C@H]1O [VANCOMYCIN] |  |  | 86 µM (≈ 125 µg/mL) | 0.3 (≈ 0.435 µg/mL)
